Laboratory results published in patent US9763961B2, “Compositions that modulate the activity of estrogen receptors and estrogen-related receptors and methods for use” (CITY OF HOPE, priority 2005, dated 2017).
Entries after “also recorded” stand apart in the source; their conditions may differ.

How the values were obtained:
Format in all cases: cell-based
human ERRα-1 = biological target: T1, human ERRα-1 (Homo sapiens, UniProt P11474); test: Transient transfection luciferase assay, full length human ERRα with SF1-SV40-Luc reporter in HeLa cells; conditions: for Antagonism of constitutive activity of ERRα (in words) / IC50: HeLa cells; for Antagonism of constitutive activity of ERRα (in words): SF1 binding site reporter, FIG. 1; for IC50: pSG5-ERRα, 24 h, mean ± SD
T1 construct: expressed in transfected cells; host or cells: HeLa
T1 sequence (P11474 1-423): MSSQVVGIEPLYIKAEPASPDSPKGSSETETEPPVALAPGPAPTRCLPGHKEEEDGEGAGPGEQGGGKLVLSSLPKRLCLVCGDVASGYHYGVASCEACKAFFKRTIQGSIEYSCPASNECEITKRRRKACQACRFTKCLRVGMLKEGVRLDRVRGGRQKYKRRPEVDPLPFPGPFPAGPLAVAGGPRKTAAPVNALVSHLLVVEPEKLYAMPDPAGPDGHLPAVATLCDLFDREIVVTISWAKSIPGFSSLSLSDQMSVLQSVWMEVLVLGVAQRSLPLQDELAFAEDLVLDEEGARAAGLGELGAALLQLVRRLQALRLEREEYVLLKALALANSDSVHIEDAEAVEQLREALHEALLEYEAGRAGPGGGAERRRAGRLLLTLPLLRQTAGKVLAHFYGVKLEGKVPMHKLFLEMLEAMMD
Protocol: HeLa cells were cultured in MEM Earle's salts medium supplemented with 5% charcoal/dextran-treated fetal bovine serum. Cells were then divided and cultured in 6-well plates until 80% confluence was achieved. The cells were next transfected with 4 μg Lipofectin. An equal amount of total DNA was used in all transfections by including appropriate amounts of the empty vector, pSG5, in addition to specific amounts of pSG5-ERRα and luciferase reporter plasmids (ERRE (ERRα recognizes an ERE half site)-containing reporter and aromatase promoter I.3-containing reporter). Following an overnight incubation, the medium containing Lipofectin and DNA was removed, and the cells cultured in a growth medium containing 5% charcoal/dextran-treated fetal bovine serum with or without ligands. After a 24-hour incubation, the cells was harvested from the plates by scraping, and the luciferase activities in the cell lysates (with the same amounts of protein) was measured according to the manufacturer's instructions (Promega). All experiments were performed in triplicate.
(§1) To evaluate the functional significance of the interaction of chalcones with ERRα, we incubated these compounds with HeLa cells which were transiently transfected with human ERRα expression plasmid and a luciferase reporter plasmid containing SF1 binding site. […] In order to confirm the results above, HeLa cells were transiently transfected with GAL4-human ERRα LBD fusion expression plasmid and a luciferase reporter plasmid containing GAL4 binding site. […] Most of the compounds, however, have similar IC50 value, and have a similar potency.
(§2) Referring to FIG. 1, HeLa cells were cotransfected with pSG5-ERRα (0.5 μg) and luciferase reporter plasmid containing SF1 binding site and SV40 promoter (0.25 μg). The transfected cells were incubated with Compound No. 1-9 for 24 h. After cells were washed with 1× PBS, luciferase activity was measured. Values represent the mean±SD.

[1] = biological target: T2, GAL4-human ERRα LBD fusion (Homo sapiens, UniProt P11474); test: Transient transfection luciferase assay, GAL4-human ERRα LBD fusion with Gal4-TK-Luc reporter in HeLa cells; conditions: pM-ERRα LBD, 24 h, mean ± SD
T2 construct: GAL4-human ERRα LBD fusion expression plasmid; expressed in transfected cells; host or cells: HeLa
T2 sequence (P11474 193-421 limits assumed): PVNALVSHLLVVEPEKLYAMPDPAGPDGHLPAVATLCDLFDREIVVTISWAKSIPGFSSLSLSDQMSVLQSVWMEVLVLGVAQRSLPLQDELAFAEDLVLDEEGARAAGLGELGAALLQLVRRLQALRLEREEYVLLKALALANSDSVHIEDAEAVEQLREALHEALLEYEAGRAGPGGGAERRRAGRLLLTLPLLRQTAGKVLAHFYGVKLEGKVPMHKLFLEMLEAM
Protocol: Referring to FIG. 2, we have also prepared GAL4-ERRα expression plasmid and luciferase reporter plasmids with GAL4 response element. This is a more sensitive assay method than that using pSG5-ERRα and ERE luciferase reporter plasmids.
as §1
as §2, with “2,” for “1,”, “pM-ERRα LBD” for “pSG5-ERRα”, “GAL4” for “SF1”, “TK” for “SV40”

ERRβ = biological target: T3, ERRβ (Homo sapiens, UniProt O95718); test: Transient transfection luciferase assay with pSG5-ERRb and SF1-SV40 reporter in HeLa cells; conditions: for IC50: HeLa cells, 24 h, average of at least two experiments; for Antagonistic properties on ERRb (in words): transient transfection
T3 construct: expressed in transfected cells; host or cells: HeLa
T3 sequence (O95718 1-433): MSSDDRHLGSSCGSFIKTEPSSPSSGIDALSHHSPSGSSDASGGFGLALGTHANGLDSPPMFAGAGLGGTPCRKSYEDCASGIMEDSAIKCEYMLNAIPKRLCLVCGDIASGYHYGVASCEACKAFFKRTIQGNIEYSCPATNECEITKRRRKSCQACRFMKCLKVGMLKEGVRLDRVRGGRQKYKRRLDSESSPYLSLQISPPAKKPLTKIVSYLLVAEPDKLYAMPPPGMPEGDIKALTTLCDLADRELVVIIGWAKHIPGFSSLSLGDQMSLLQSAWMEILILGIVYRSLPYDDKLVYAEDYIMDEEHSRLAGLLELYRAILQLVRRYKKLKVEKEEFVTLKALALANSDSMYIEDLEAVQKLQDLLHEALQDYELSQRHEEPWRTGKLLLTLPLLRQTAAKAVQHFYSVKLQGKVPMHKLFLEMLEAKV

ERRγ = biological target: T4, ERRγ (Homo sapiens, UniProt P62508); test: Transient transfection luciferase assay with pSG5-ERRg and SF1-SV40 reporter in HeLa cells; conditions: for IC50: HeLa cells, 24 h, average of at least two experiments; for Antagonistic properties on ERRg (in words): transient transfection
T4 construct: expressed in transfected cells; host or cells: HeLa
T4 sequence (P62508 1-458): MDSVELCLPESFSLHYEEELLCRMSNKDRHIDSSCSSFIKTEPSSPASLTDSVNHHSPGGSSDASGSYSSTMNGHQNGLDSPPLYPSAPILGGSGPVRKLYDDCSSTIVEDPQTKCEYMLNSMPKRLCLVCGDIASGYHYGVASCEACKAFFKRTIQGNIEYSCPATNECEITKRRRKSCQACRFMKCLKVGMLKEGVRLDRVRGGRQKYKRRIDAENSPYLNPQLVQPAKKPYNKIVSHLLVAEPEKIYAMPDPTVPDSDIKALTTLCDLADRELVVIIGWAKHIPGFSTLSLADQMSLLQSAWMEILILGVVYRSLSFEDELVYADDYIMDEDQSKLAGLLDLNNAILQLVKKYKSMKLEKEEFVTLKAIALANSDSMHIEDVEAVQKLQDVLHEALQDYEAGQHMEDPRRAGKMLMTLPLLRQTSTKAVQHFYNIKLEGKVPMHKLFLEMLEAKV

ERβ = biological target: T5, ERβ (Homo sapiens, UniProt Q92731); test: Transient transfection luciferase assay with pCI-ERb and ERE-SV40 reporter in HeLa cells, with 100 pM estradiol; conditions: for IC50: HeLa cells, in the presence of 100 pM of estradiol, 24 h; for Antagonistic properties on ERb (in words): transient transfection
T5 construct: expressed in transfected cells; host or cells: HeLa
T5 sequence (Q92731 whole entry, species assumed): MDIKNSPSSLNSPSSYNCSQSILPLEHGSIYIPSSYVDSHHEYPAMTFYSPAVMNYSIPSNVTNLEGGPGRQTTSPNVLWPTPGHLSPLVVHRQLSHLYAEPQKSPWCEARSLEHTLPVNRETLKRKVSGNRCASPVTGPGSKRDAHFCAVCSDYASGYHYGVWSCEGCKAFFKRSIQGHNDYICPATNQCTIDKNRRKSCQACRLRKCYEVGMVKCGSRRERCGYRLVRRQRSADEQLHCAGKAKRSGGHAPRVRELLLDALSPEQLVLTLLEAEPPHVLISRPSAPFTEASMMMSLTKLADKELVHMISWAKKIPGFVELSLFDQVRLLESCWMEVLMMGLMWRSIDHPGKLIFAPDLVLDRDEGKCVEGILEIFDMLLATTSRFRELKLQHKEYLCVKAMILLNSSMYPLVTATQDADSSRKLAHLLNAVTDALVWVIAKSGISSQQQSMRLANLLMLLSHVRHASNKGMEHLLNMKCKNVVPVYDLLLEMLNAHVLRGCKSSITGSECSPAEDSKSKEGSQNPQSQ

Antagonism of constitutive activity of ERRα (in words) (human ERRα-1) | IC50 (human ERRα-1) [µM] | IC50 [1] [pM] | IC50 (ERRβ) [µM] | Antagonistic properties on ERRb (in words) (ERRβ) | IC50 (ERRγ) [µM] | Antagonistic properties on ERRg (in words) (ERRγ) | IC50 (ERβ) [µM] | Antagonistic properties on ERb (in words) (ERβ) | Compound | Rank of potency as antagonist of ERRα among the chalcones (human ERRα-1)
antagonists of ERRα | 5.7 ± 1.8 | 1.1e+06 ± 700000 | 3.5 | showed antagonistic properties | 8 | showed antagonistic properties | 4.6 | showed antagonistic properties | COc1cccc(/C=C/C(=O)c2ccc(O)cc2O)c1OC [Compound No. 1-9, 2′,4′-Dihydroxy-2,3-dimethoxychalcone] | most potent antagonist among these chalcones; also recorded: more potent antagonist of ERRα among these seven chalcones
antagonists of ERRα | 6.2 ± 1 | 900000 ± 400000 | 6.7 | showed antagonistic properties | 3.7 | showed antagonistic properties | 7.4 | showed antagonistic properties | O=C(/C=C/c1ccccc1O)c1ccc(O)cc1O [Compound No. 7-5, 2,2′,4′-Trihydroxychalcone] | more potent antagonist of ERRα among these seven chalcones
